The values below come from patent US10227357B2, “Compounds and methods for kinase modulation, and indications therefor” (Plexxikon Inc., priority 2012, dated 2019).

For the assay, the target named is T1, c-kit mutant D816V (Homo sapiens, UniProt P10721, D816V/DEL694-753).
T1 construct: residues 551-934, kinase insertion domain residues 694-753 deleted; 6x-histidine (N); made in house; host or cells: E. coli Arctic Express (DE3) RIL (Stratagene)
T1 sequence (P10721 with tags, fused parts or gaps DEL694-753/D816V): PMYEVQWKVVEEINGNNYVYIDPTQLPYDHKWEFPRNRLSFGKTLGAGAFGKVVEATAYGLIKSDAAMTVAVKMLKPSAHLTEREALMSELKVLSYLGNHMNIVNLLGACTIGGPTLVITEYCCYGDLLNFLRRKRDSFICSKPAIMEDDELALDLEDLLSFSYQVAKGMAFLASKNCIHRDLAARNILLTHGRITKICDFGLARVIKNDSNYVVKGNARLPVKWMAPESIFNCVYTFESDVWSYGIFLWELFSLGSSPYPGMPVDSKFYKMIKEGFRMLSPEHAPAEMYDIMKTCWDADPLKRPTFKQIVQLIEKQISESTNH
Nature of the assay: c-Kit mutant D816V biochemical assay, AlphaScreen. The note with it: c-kit D816V biochemical inhibitory activity; read-out: Biochemical activity (IC50 μM) Kit D816V. The protocol:
Compounds to be tested were dissolved in DMSO to a concentration of 20 mM. These were diluted 30 μl into 120 μl of DMSO (4 mM) and 1 μl was added to an assay plate. These were then serially diluted 1:3 (50 μl to 100 μl DMSO) for a total of 8 points. Plates were prepared such that each kinase reaction is 20 μl in 1× kinase buffer (25 mM HEPES, pH 7.2, 8 mM MgCl2, 2 mM MnCl2, 50 mM NaCl, 0.01% Brij, 1 mM DTT, 0.01% BSA), 5% DMSO and 10 μM ATP. […] After incubation of the kinase reaction for 30 minutes at room temperature, 5 μl of donor beads (Streptavidin coated beads (Perkin Elmer Life Science) final concentration 7.5 μg/ml) in stop buffer (25 mM Hepes pH 7.5, 100 mM EDTA, 0.01% BSA) was added, the sample was mixed and incubated for 20 minutes at room temperature before adding 5 μl of acceptor beads (PY20 coated beads (Perkin Elmer Life Science) final concentration 7.5 μg/ml) in stop buffer. The samples were incubated for 60 minutes at room temperature and the signal per well was read on EnVision reader. […] The signal vs. compound concentration was used to determine the IC50.
Cells were grown in Terrific Broth (TB) media to an OD600 of 0.6 at 37° C. at which temperature was reduced to 10° C., protein was induced with 1.0 mM IPTG for 18 hours and harvested by centrifugation at 8000×g for 20 minutes. Cells were re-suspended in 0.1M KPO4 pH 8.0, 250 mM NaCl, 10% Glycerol, 0.75% NP-40, 25 mM Imidazole, 5 mM BME with 0.2 mg/ml Lysosyme, 2.0 mM PMSF, 25 μg/ml DNAse I, incubated in ice for 30 minutes and lysed with a cell disruptor (MicroFluidics). The lysate was clarified by centrifugation at 20,000×g for 2 hours. The protein was captured with Talon resin (Clontech). Contaminating proteins were washed off with 25 mM Tris-HCl pH 8.3, 250 mM NaCl, 15% Glycerol, 1% Triton X-100, and protein eluted using 100 mM EDTA. The protein was further purified using Gel Filtration column 26/600 Superdex 200 (GE) in 50 mM Tris-HCl, pH 8.0, 250 mM NaCl, 15% Glycerol, 5 mM BME. The protein was aliquoted and flash-frozen in liquid Nitrogen.
(In general: Alpha assays give light when donor and acceptor beads are brought close together.)
The IC50 is the concentration that gives 50% inhibition. With `O=S(=O)(Nc1ccc(-c2ncnc3[nH]c(-c4ccc(F)cc4F)cc23)c(F)c1)c1ccc(F)cc1` [P-0332, N-[4-[6-(2,4-difluorophenyl)-7H-pyrrolo[2,3-d]pyrimidin-4-yl]-3-fluoro-phenyl]-4-fluoro-benzenesulfonamide], the IC50 lay within 0.0001 to 1 µM.

With `Nc1ccc(-c2ncnc3[nH]c(-c4ccc(F)cc4F)cc23)c(F)c1` [P-0341, 4-[6-(2,4-difluorophenyl)-7H-pyrrolo[2,3-d]pyrimidin-4-yl]-3-fluoro-aniline], the half-inhibitory concentration (IC50) lay in the range of 0.0001 to 1 µM.

Consider `CS(=O)(=O)Nc1ccccc1-c1ncnc2[nH]c(-c3ccc(F)cc3)cc12` [P-0375, N-[2-[6-(4-fluorophenyl)-7H-pyrrolo[2,3-d]pyrimidin-4-yl]phenyl]methanesulfonamide], for which the 50% inhibitory concentration (IC50) lay in the range of 10 to 200 µM.

Regarding `NS(=O)(=O)c1ccc(-c2ncnc3[nH]c(-c4ccc(F)cc4)cc23)c(F)c1` [P-0376, 3-fluoro-4-[6-(4-fluorophenyl)-7H-pyrrolo[2,3-d]pyrimidin-4-yl]benzenesulfonamide], the half-maximal inhibitory concentration (IC50) was in the range of 0.0001 to 1 µM.

As to `Cc1cc2c(-c3ccc(S(=O)(=O)NC4CC4)cc3)ncnc2[nH]1` [P-0380, N-cyclopropyl-4-(6-methyl-7H-pyrrolo[2,3-d]pyrimidin-4-yl)benzenesulfonamide], the IC50 is 10 to 200 µM.

`O=S(=O)(Nc1cccc(-c2ncnc3[nH]c(-c4cnc(C5CC5)nc4)cc23)c1)C1CC1` [P-0383, N-[3-[6-(2-cyclopropylpyrimidin-5-yl)-7H-pyrrolo[2,3-d]pyrimidin-4-yl]phenyl]cyclopropanesulfonamide]: the half-maximal inhibitory concentration (IC50) is 10 to 200 µM.

For the compound `c1nc(-c2cnc(C3CC3)nc2)c2cc(-c3cnc(C4CC4)nc3)[nH]c2n1` [P-0384, 4,6-bis(2-cyclopropylpyrimidin-5-yl)-7H-pyrrolo[2,3-d]pyrimidine], the IC50 fell in the range of 10 to 200 µM.

Take `NS(=O)(=O)c1ccc(-c2ncnc3[nH]c(-c4cnc(C5CC5)nc4)cc23)cc1` [P-0385, 4-[6-(2-cyclopropylpyrimidin-5-yl)-7H-pyrrolo[2,3-d]pyrimidin-4-yl]benzenesulfonamide]: the IC50 lay in the range of 1 to 10 µM.

As to `O=S(=O)(Nc1ccc(-c2ncnc3[nH]c(-c4ccc(F)cc4)cc23)c(F)c1)N1CCCC1` [P-0400, N-[3-fluoro-4-[6-(4-fluorophenyl)-7H-pyrrolo[2,3-d]pyrimidin-4-yl]phenyl]pyrrolidine-1-sulfonamide], the IC50 was 1 to 10 µM.

Regarding `O=S(=O)(Nc1ccc(-c2ncnc3[nH]c(-c4ccc(F)cc4)cc23)cc1F)N1CCCC1` [P-0405, N-[2-fluoro-4-[6-(4-fluorophenyl)-7H-pyrrolo[2,3-d]pyrimidin-4-yl]phenyl]pyrrolidine-1-sulfonamide], the IC50 lay in the range of 10 to 200 µM.

Turning to `O=S(=O)(Nc1ccc(-c2ncnc3[nH]c(-c4ccc(F)cc4)cc23)cc1)N1CCCC1` [P-0411, N-[4-[6-(4-fluorophenyl)-7H-pyrrolo[2,3-d]pyrimidin-4-yl]phenyl]pyrrolidine-1-sulfonamide], the 50% inhibitory concentration (IC50) is 1 to 10 µM.

`CCNc1ccc(-c2ncnc3[nH]c(-c4ccc(F)cc4)cc23)cn1` [P-0417, N-ethyl-5-[6-(4-fluorophenyl)-7H-pyrrolo[2,3-d]pyrimidin-4-yl]pyridin-2-amine]: the IC50 lay in the range of 1 to 10 µM.

`CCNS(=O)(=O)c1ccc(-c2ncnc3[nH]c(-c4ccc(F)cc4)cc23)cc1` [P-0422, N-ethyl-4-[6-(4-fluorophenyl)-7H-pyrrolo[2,3-d]pyrimidin-4-yl]benzenesulfonamide]: the IC50 is 10 to 200 µM.

Take `O=S(=O)(Nc1ccc(F)cc1)c1ccc(-c2ncnc3[nH]c(-c4ccc(F)cc4)cc23)cc1` [P-0428, N-(4-fluorophenyl)-4-[6-(4-fluorophenyl)-7H-pyrrolo[2,3-d]pyrimidin-4-yl]benzenesulfonamide]: the half-maximal inhibitory concentration (IC50) lay within 0.0001 to 1 µM.

In the case of `Cc1ccc(S(=O)(=O)Nc2cccc(-c3ncnc4[nH]c(-c5ccc(F)cc5)cc34)c2)cc1` [P-0435, N-[3-[6-(4-fluorophenyl)-7H-pyrrolo[2,3-d]pyrimidin-4-yl]phenyl]-4-methyl-benzenesulfonamide], the half-maximal inhibitory concentration (IC50) was 10 to 200 µM.

Consider `Cc1csc(S(=O)(=O)NC2CCN(c3ncnc4[nH]c(-c5cnn(C)c5)cc34)CC2)c1` [P-0453, 4-methyl-N-[1-[6-(1-methylpyrazol-4-yl)-7H-pyrrolo[2,3-d]pyrimidin-4-yl]-4-piperidyl]thiophene-2-sulfonamide], for which the IC50 was 0.0001 to 1 µM.

Consider `Cn1cc(-c2cc3c(N4CCC(NS(=O)(=O)c5ccc6c(c5)OCO6)CC4)ncnc3[nH]2)cn1` [P-0456, N-[1-[6-(1-methylpyrazol-4-yl)-7H-pyrrolo[2,3-d]pyrimidin-4-yl]-4-piperidyl]-1,3-benzodioxole-5-sulfonamide], for which the half-maximal inhibitory concentration (IC50) was 0.0001 to 1 µM.

In the case of `Cc1ncc(-c2cc3c(N4CCC(NS(=O)(=O)c5ccc(OC(F)(F)F)cc5)CC4)ncnc3[nH]2)s1` [P-0463, N-[1-[6-(2-methylthiazol-5-yl)-7H-pyrrolo[2,3-d]pyrimidin-4-yl]-4-piperidyl]-4-(trifluoromethoxy)benzenesulfonamide], the concentration for half-maximal inhibition (IC50) was 10 to 200 µM.

On to `O=S(=O)(NC1CCN(c2ncnc3[nH]c(-c4ccc(Cl)cc4)cc23)CC1)c1cc2ccccc2s1` [P-0467, N-[1-[6-(4-chlorophenyl)-7H-pyrrolo[2,3-d]pyrimidin-4-yl]-4-piperidyl]benzothiophene-2-sulfonamide], for which the IC50 lay within 1 to 10 µM.

Take `CC(C)Oc1ccc(S(=O)(=O)NC2CCN(c3ncnc4[nH]c(-c5ccc(Cl)cc5)cc34)CC2)cc1` [P-0468, N-[1-[6-(4-chlorophenyl)-7H-pyrrolo[2,3-d]pyrimidin-4-yl]-4-piperidyl]-4-isopropoxy-benzenesulfonamide]: the concentration for half-maximal inhibition (IC50) lay in the range of 0.0001 to 1 µM.

For the compound `CN(C)S(=O)(=O)NC1CCN(c2ncnc3[nH]c(-c4cnn(C)c4)cc23)CC1` [P-0469, 4-[4-(dimethylsulfamoylamino)-1-piperidyl]-6-(1-methylpyrazol-4-yl)-7H-pyrrolo[2,3-d]pyrimidine], the IC50 is 0.0001 to 1 µM.

For the compound `O=S(=O)(NC1CCN(c2ncnc3[nH]c(C#CC4CC4)cc23)CC1)c1ccc(Cl)cc1` [P-0471, 4-chloro-N-[1-[6-(2-cyclopropylethynyl)-7H-pyrrolo[2,3-d]pyrimidin-4-yl]-4-piperidyl]benzenesulfonamide], the concentration for half-maximal inhibition (IC50) is 10 to 200 µM.

As to `O=S(=O)(NC1CCN(c2ncnc3[nH]c(-c4ccc(Cl)cc4)cc23)CC1)c1cccc(Cl)c1` [P-0480, 3-chloro-N-[1-[6-(4-chlorophenyl)-7H-pyrrolo[2,3-d]pyrimidin-4-yl]-4-piperidyl]benzenesulfonamide], the IC50 was in the range of 1 to 10 µM.

Turning to `O=S(=O)(NC1CCN(c2ncnc3[nH]c(-c4ccc(Cl)cc4)cc23)CC1)c1ccc(F)cc1` [P-0481, N-[1-[6-(4-chlorophenyl)-7H-pyrrolo[2,3-d]pyrimidin-4-yl]-4-piperidyl]-4-fluoro-benzenesulfonamide], the half-inhibitory concentration (IC50) is 10 to 200 µM.

As for `Cn1cc(-c2cc3c(N4CCC(NS(=O)(=O)c5ccc(N6CCCC6=O)cc5)CC4)ncnc3[nH]2)cn1` [P-0483, N-[1-[6-(1-methylpyrazol-4-yl)-7H-pyrrolo[2,3-d]pyrimidin-4-yl]-4-piperidyl]-4-(2-oxopyrrolidin-1-yl)benzenesulfonamide], the 50% inhibitory concentration (IC50) was 0.0001 to 1 µM.

On to `CCCn1cc(S(=O)(=O)NC2CCN(c3ncnc4[nH]c(-c5cnn(C)c5)cc34)CC2)cn1` [P-0484, N-[1-[6-(1-methylpyrazol-4-yl)-7H-pyrrolo[2,3-d]pyrimidin-4-yl]-4-piperidyl]-1-propyl-pyrazole-4-sulfonamide], for which the half-maximal inhibitory concentration (IC50) fell in the range of 1 to 10 µM.
